Laboratory results as given in ChEMBL document CHEMBL5465560, “Selectivity Literature for EUbOPEN Chemogenomic Library” (2024).

What was measured:
[1] = biological target: Tyrosine-protein kinase ABL1 (Homo sapiens, UniProt P00519); conditions: at 10 µM
[2] = biological target: T1, Serine/threonine-protein kinase TBK1 (Homo sapiens) (UniProt Q9UHD2); assay: Selectivity interaction (Kinase panel (Invitrogen)) EUB0000639a TBK1; conditions: at 200 nM
T1 sequence (whole entry): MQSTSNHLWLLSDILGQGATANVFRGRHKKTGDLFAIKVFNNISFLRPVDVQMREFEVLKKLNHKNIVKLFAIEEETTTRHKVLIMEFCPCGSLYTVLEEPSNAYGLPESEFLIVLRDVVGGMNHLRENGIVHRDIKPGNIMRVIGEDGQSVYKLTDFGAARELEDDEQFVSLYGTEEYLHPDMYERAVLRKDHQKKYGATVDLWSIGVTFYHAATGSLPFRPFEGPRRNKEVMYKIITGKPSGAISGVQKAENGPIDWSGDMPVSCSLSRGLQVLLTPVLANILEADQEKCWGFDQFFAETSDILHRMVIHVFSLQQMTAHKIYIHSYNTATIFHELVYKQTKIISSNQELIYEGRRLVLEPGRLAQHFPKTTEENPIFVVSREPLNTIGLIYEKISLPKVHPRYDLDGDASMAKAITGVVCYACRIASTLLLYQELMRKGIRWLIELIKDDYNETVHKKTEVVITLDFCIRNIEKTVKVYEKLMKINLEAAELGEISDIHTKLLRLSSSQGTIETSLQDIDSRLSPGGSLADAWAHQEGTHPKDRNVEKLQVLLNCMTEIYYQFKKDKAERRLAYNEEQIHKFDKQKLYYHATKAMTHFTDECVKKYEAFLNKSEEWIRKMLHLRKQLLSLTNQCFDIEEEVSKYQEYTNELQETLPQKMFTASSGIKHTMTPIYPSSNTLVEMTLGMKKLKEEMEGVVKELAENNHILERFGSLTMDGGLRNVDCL

[3] = biological target: Epithelial discoidin domain-containing receptor 1 (Homo sapiens) (UniProt Q08345); assay: Selectivity interaction (KinomeScan (DiscoverX)) EUB0000229b DDR1; conditions: at 10 µM
[4] = biological target: Tyrosine-protein kinase JAK1 (Homo sapiens, UniProt P23458); assay: Selectivity interaction (KinomeScan (DiscoverX)) EUB0000229b JAK1; conditions: at 10 µM
Chain of Tyrosine-protein kinase JAK1 (P23458 whole entry): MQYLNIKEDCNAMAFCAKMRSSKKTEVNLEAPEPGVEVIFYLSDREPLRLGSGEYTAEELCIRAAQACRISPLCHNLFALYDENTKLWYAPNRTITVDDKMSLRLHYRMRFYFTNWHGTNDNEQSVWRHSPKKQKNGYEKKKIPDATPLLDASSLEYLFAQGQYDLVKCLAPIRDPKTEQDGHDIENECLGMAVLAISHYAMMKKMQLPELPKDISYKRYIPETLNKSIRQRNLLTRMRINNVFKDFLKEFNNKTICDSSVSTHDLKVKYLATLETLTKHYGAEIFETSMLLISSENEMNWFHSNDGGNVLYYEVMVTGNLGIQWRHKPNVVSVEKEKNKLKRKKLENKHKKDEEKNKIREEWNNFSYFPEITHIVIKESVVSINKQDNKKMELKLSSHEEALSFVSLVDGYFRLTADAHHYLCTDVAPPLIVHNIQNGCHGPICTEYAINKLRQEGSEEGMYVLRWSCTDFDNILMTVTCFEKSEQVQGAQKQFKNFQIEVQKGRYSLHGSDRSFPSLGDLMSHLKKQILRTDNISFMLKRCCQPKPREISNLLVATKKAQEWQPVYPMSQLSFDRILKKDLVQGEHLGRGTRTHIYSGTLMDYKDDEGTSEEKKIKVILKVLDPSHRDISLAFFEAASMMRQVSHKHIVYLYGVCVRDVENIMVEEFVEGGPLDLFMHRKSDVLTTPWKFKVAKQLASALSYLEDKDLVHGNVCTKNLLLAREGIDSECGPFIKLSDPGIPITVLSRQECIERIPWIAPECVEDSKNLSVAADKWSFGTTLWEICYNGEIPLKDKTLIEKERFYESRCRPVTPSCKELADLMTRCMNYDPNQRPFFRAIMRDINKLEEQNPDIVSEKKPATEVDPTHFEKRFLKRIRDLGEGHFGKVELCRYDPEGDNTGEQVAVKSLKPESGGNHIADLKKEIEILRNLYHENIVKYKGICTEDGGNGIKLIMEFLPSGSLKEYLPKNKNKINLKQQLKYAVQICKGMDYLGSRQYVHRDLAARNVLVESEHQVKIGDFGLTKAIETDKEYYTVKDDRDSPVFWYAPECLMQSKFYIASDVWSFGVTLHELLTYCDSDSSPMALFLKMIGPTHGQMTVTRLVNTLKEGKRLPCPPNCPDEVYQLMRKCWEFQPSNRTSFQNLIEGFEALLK

[5] = biological target: T2, Receptor-interacting serine/threonine-protein kinase 4 (Homo sapiens) (UniProt P57078); assay: Selectivity interaction (KinomeScan (DiscoverX)) EUB0000092b RIPK4; conditions: at 10 µM
T2 sequence (whole entry): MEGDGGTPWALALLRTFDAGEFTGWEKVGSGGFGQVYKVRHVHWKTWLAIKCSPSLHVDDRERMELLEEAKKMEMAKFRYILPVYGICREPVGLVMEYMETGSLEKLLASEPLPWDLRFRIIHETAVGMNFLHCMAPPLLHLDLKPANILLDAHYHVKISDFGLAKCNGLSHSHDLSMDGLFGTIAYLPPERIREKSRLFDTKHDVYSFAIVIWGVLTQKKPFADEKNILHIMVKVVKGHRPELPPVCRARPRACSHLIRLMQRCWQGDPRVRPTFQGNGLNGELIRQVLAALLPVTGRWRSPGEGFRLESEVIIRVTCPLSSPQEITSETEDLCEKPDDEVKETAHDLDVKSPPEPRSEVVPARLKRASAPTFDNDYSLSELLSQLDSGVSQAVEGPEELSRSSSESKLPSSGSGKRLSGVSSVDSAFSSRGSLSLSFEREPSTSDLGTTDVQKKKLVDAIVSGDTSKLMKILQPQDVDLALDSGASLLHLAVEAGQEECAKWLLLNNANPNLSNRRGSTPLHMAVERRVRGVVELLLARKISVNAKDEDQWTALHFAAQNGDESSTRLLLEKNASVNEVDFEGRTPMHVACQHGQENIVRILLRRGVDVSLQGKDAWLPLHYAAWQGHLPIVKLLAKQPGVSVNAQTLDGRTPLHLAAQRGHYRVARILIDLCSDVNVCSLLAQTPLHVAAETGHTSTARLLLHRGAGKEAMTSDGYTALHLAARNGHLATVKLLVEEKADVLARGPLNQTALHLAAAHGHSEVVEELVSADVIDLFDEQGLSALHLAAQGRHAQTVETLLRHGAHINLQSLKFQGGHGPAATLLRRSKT

[6] = biological target: Nucleosome-remodeling factor subunit BPTF (Homo sapiens, UniProt Q12830); assay: Selectivity interaction (Human bromodomain panel (DSF assay)) EUB0000233b BPTF
[7] = tested on: Mast/stem cell growth factor receptor Kit (Homo sapiens), P10721 [A829P]; assay: (§1) Selectivity interaction (LanthaScreen Eu Kinase Binding Assay) EUB0001632a KIT; conditions: at 10 µM
Chain of Mast/stem cell growth factor receptor Kit (Homo sapiens), P10721 [A829P] (P10721 whole entry A829P): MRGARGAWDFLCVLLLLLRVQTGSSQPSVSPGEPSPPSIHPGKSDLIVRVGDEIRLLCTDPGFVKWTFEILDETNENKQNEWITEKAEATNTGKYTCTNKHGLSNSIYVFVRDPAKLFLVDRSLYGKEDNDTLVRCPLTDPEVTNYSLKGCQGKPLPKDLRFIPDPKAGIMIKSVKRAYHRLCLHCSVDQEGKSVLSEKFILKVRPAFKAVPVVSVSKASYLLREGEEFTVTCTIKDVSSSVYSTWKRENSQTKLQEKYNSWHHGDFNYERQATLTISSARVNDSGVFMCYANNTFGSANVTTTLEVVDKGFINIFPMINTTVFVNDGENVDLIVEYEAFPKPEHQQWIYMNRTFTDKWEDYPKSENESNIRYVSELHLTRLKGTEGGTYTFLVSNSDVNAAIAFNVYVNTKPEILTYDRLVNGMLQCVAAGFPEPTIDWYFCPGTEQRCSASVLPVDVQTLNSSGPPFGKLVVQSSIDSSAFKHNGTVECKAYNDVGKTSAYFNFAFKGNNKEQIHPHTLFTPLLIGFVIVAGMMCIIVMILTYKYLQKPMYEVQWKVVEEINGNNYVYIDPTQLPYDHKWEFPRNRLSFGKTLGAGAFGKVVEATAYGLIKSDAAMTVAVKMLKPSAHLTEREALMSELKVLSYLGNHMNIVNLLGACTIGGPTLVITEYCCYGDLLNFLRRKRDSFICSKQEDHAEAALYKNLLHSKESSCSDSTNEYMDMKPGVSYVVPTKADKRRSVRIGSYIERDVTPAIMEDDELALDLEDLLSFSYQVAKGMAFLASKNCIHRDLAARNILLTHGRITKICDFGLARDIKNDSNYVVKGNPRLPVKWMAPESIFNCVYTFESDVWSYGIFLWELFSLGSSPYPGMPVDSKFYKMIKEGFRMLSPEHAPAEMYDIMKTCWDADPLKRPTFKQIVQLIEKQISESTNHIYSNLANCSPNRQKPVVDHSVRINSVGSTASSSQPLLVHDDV

[8] = tested on: Mast/stem cell growth factor receptor Kit (Homo sapiens), P10721 [D816H]; assay: as §1; conditions: at 10 µM
Chain of Mast/stem cell growth factor receptor Kit (Homo sapiens), P10721 [D816H] (P10721 whole entry D816H): as the sequence (P10721 whole entry A829P) above, with D816H, P829A counted along it

[9] = tested on: Mast/stem cell growth factor receptor Kit (Homo sapiens), P10721 [D816V]; assay: as §1; conditions: at 10 µM
[10] = tested on: Mast/stem cell growth factor receptor Kit (Homo sapiens), P10721 [D820E]; assay: as §1; conditions: at 10 µM
Chain of Mast/stem cell growth factor receptor Kit (Homo sapiens), P10721 [D820E] (P10721 whole entry D820E): as the sequence (P10721 whole entry A829P) above, with D820E, P829A counted along it

[11] = tested on: Mast/stem cell growth factor receptor Kit (Homo sapiens), P10721 [N822K]; assay: as §1; conditions: at 10 µM
[12] = tested on: Mast/stem cell growth factor receptor Kit (Homo sapiens), P10721 [T670E]; assay: as §1; conditions: at 10 µM
[13] = tested on: Mast/stem cell growth factor receptor Kit (Homo sapiens), P10721 [V559D,T670I]; assay: as §1; conditions: at 10 µM
[14] = tested on: Mast/stem cell growth factor receptor Kit (Homo sapiens), P10721 [V654A]; assay: as §1; conditions: at 10 µM
Chain of Mast/stem cell growth factor receptor Kit (Homo sapiens), P10721 [V654A] (P10721 whole entry V654A): as the sequence (P10721 whole entry A829P) above, with V654A, P829A counted along it

[15] = tested on: Mast/stem cell growth factor receptor Kit (Homo sapiens), P10721 [Y823D]; assay: as §1; conditions: at 10 µM
[16] = biological target: T3, Non-receptor tyrosine-protein kinase TNK1 (Homo sapiens) (UniProt Q13470); assay: Selectivity interaction (KinomeScan (DiscoverX)) EUB0000695a TNK1; conditions: at 100 nM
T3 sequence (whole entry): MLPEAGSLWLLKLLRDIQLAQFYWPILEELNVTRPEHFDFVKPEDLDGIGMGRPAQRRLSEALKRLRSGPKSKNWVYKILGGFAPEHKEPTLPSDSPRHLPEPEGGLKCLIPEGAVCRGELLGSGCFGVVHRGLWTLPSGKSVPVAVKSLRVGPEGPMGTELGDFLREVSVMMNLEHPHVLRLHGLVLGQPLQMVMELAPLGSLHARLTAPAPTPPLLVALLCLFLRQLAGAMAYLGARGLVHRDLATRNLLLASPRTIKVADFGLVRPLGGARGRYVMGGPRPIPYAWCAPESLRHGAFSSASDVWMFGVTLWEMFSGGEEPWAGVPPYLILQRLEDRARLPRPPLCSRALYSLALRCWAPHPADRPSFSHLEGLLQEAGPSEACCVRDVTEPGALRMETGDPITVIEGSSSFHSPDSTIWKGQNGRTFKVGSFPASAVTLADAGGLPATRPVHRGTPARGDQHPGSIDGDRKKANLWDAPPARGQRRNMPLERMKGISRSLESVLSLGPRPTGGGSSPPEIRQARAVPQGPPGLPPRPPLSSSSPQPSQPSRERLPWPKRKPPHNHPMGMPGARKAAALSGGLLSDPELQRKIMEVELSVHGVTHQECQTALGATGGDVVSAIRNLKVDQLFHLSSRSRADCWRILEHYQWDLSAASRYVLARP

For `Cc1cc([C@@H](C)Nc2ccccc2C(=O)O)c2nc(N3CCOCC3)cc(=O)n2c1` [AZD-6482], the % of control [1] was 88%.

`CC[C@@H]1[C@H](F)C(=O)N[C@@H]1COc1nccc2cc(C(N)=O)c(OC)cc12` [ZIMLOVISERTIB] was tested, and the % of inhibition [2] was 7.67%.

With `COc1cc(N(C)c2ccnc3ccc(C(F)(F)F)cc23)cc(OC)c1OC` the % binding [3] was 78% and the % binding [4] was 70%.

`CCC(=O)N1CCN(c2ccc(-n3c(=O)ccc4cnc5ccc(-c6cnc7ccccc7c6)cc5c43)cc2C(F)(F)F)CC1` showed a % of control [5] of 100%.

`CN(C)CCCOc1ccc(-c2cc(NCCCn3cccn3)nc(S(C)(=O)=O)n2)cc1` gave a dTM [6] of 4 K.

`Cn1cc(-n2cnc3c(NCc4nc5cc(Cl)c(Cl)cc5[nH]4)nc(N4CCOCC4)nc32)cn1` showed a % of inhibition [7] of -25.5%, a % of inhibition [8] of 9.61% and a % of inhibition [9] of -20.9%. For the same compound, the % of inhibition [10] was -6.81%, the % of inhibition [11] was -18.2% and the % of inhibition [12] was -20.6%. For the same compound, the % of inhibition [13] was 1.44%, the % of inhibition [14] was -40.6% and the % of inhibition [15] was -40.5%.

`Cc1cc(F)c(C(=O)Nc2cccc(-c3nncn3C(C)C)n2)cc1-n1cnc(C2CC2)c1` showed a % of control [16] of 100%.
